Test results published in patent publication US7868037B2 (PTC Therapeutics, Inc., priority 2004, dated 2011).
Where two headings read alike, the source gives them in different places.

What was measured:
[1] = tested on: HCV replicon; assay: microbe, parasite or virus in culture; assay type: cell-based, hepatitis C virus; settings: Hepatitis C virus
[2] = tested on: cap-dependent translation (pLuc); assay: Western blot of Fluc reporter protein in pLuc cells; assay type: cell-based, human; settings: 20 hours, data not shown

Row | SMILES | IC50 ([1]; read-out: Replicon IC50 μM) [µM] | melting point [°C] | IC50 ([1]; read-out: Replicon IC50) [µM] | cap-dependent protein production (pLuc) in Western blot [2]
1 | CCn1c(-c2ccc(O)c(NC(=O)CCl)c2)c(C#N)c2ccc(OC)cc21 [Compound 333, 2-chloro-N-[5-(3-cyano-1-ethyl-6-methoxy-1H-indol-2-yl)-2-hydroxyphenyl]acetamide] | 0.5 to 2 | 237 to 240 | – | –
2 | CCn1c(-c2ccc3c(c2)NC(=O)CO3)c(C#N)c2ccc(OC)cc21 [Compound 334, 1-ethyl-6-methoxy-2-(3-oxo-3,4-dihydro-2H-benzo[1,4]oxazin-6-yl)-1H-indole-3-carbonitrile] | 0.5 to 2 | 242 to 246 | – | –
3 | CCn1c(-c2ccc3c(c2)N(C)C(=O)CO3)c(C#N)c2ccc(OC)cc21 [Compound 339, 1-ethyl-6-methoxy-2-(4-methyl-3-oxo-3,4,-dihydro-2H-benzo[1,4]oxazin-6-yl)-1H-indole-3-carbonitrile] | 0.5 to 2 | 215 to 219 | – | –
4 | CCn1c(-c2ccc3[nH]c(=O)oc3c2)c(C#N)c2ccc(OC)cc21 [Compound 340, 1-ethyl-6-methoxy-2-(2-oxo-2,3-dihydro-benzooxazol-6-yl)-1H-indole-3-carbonitrile] | > 2 | 243 to 248 | – | –
5 | CCn1c(-c2ccc(Nc3nc(-c4ccccc4)nc4ccccc34)cc2)c(C#N)c2ccc(OC)cc21 [Compound 458, 1-ethyl-6-methoxy-2-[4-(2-phenylquinazolin-4-ylamino)-phenyl]-1H-indole-3-carbonitrile] | – | 272 to 273 | > 2 | –
6 | CCn1c(-c2ccc(NS(C)(=O)=O)cc2)c(C#N)c2ccc(OCCN3CCOCC3)cc21 [Compound 478, N-{4-[3-cyano-1-ethyl-6-(2-morpholin-4-yl-ethoxy)-1H-indol-2-yl]-phenyl}methanesulfonamide] | – | 172 to 175 | < 0.5 | –
7 | CCn1c(I)c(C#N)c2cc([N+](=O)[O-])c(OC)cc21 [Compound 499, 1-ethyl-2-iodo-6-methoxy-5-nitro-1H-indole-3-carbonitrile] | – | 235 to 250 | < 0.5 | –
8 | CCn1c(-c2ccc(N3CCCS3(=O)=O)cc2)c(C#N)c2ccc(OC(C)C)cc21 [Compound 666, 2-[4-(1,1-dioxo-1λ^6-isothiazolidin-2-yl)phenyl]-1-ethyl-6-isopropoxy-1H-indole-3-carbonitrile] | < 0.5 | 207 to 209 | – | –
9 | CCn1c(-c2ccc(N(C)S(=O)(=O)CCN3CCOCC3)cc2)c(C#N)c2ccc(OC)cc21 [Compound 668] | 0.5 to 2 | 171 to 174 | – | –
10 | COc1ccc2c(C#N)c(-c3ccc(N4CCCS4(=O)=O)cc3)n(CC3CC3)c2c1 [Compound 716, 2-[4-(1,1-dioxidoisothiazolidin-2-yl)phenyl]-1-cyclopropylmethyl-6-methoxy-1H-indole-3-carbonitrile] | < 0.5 | 204 to 205 | – | –
11 | CCn1c(-c2ccc(N3CCNS3(=O)=O)cc2)c(C#N)c2ccc(OC)cc21 [Compound 725, 2-[4-(1,1-dioxo-1λ^6-[1,2,5]thiadiazolidin-2-yl)phenyl]-1-ethyl-6-methoxy-1H-indole-3-carbonitrile] | 0.5 to 2 | 215 to 216 | – | –
12 | CCn1c(-c2ccc(N3CCN(C)S3(=O)=O)cc2)c(C#N)c2ccc(OC)cc21 [Compound 726, 1-ethyl-6-methoxy-2-[4-(5-methyl-1,1-dioxo-1λ^6-[1,2,5]thiadiazolidin-2-yl)-phenyl]-1H-indole-3-carbonitrile] | 0.5 to 2 | 221 to 222 | – | –
13 | CCn1c(-c2ccc(N3CCCS3(=O)=O)cc2)c(C#N)c2ccc(OCCN3CCOCC3)cc21 [Compound 729, 2-[4-(1,1-dioxo-1λ^6-isothiazolidin-2-yl)-phenyl]-1-ethyl-6-(2-morpholin-4-yl-ethoxy)-1H-indole-3-carbonitrile] | > 2 | 213 to 217 | – | –
14 | CCn1c(-c2cccc(NC(N)=S)c2)c(C#N)c2ccc(OC)cc21 [Compound 767, [3-(3-cyano-1-ethyl-6-methoxy-1H-indol-2-yl)-phenyl]-thiourea] | < 0.5 | 204 to 205 | – | –
15 | CCOc1ccc2c(C#N)c(-c3ccc(NP(=O)(OCC)OCC)cc3)n(CC)c2c1 [Compound 772] | < 0.5 | 211 to 212 | – | –
16 | CCOC(=O)CNC(=O)Nc1ccc(-c2c(C#N)c3ccc(OCC)cc3n2CC)cc1 [Compound 773, ethyl {3-[4-(3-cyano-6-ethoxy-1-ethyl-1H-indol-2-yl)-phenyl]-ureido}-acetate] | 0.5 to 2 | 191 to 193 | – | –
17 | CCOc1ccc2c(C#N)c(-c3ccc(N4CC(=O)NC4=O)cc3)n(CC)c2c1 [Compound 776, 2-[4-(2,4-dioxo-imidazolidin-1-yl)phenyl]-6-ethoxy-1-ethyl-1H-indole-3-carbonitrile] | < 0.5 | 257 to 258 | – | –

Row | SMILES | IC50 ([1]; read-out: Replicon IC50 μM) [µM] | melting point [°C] | IC50 ([1]; read-out: Replicon IC50) [µM] | cap-dependent protein production (pLuc) in Western blot [2]
18 | CCOc1ccc2c(C#N)c(-c3ccc(NC(=O)NC(Cc4ccccc4)C(=O)OC)cc3)n(CC)c2c1 (centres unmarked) [Compound 777, methyl 2-{3-[4-(3-cyano-6-ethoxy-1-ethyl-1H-indol-2-yl)-phenyl]-ureido}-3-phenyl-propionate] | < 0.5 | 124 to 127 | – | –
19 | CCOc1ccc2c(C#N)c(-c3ccc(N4C(=O)CNC4=O)cc3)n(CC)c2c1 [Compound 779, 2-[4-(2,5-dioxo-imidazolidin-1-yl)-phenyl]-6-ethoxy-1-ethyl-1H-indole-3-carbonitrile] | < 0.5 | 265 to 267 | – | –
20 | CCOc1ccc2c(C(=O)N(C)C)c(-c3ccc(N4C(=O)C(C)N(C)C4=O)cc3)n(CC)c2c1 (centres unmarked) [Compound 780, N,N-Dimethyl-2-[4-(3,4-dimethyl-2,5-dioxo-imidazolidin-1-yl)-phenyl]-6-ethoxy-1-ethyl-1H-indole-3-carboxamide] | 0.5 to 2 | 219 to 220 | – | –
21 | CCOc1ccc2c(C(=O)N(C)C)c(-c3ccc(N4C(=O)CN(C)C4=O)cc3)n(CC)c2c1 [Compound 781, N,N-Dimethyl-6-ethoxy-1-ethyl-2-[4-(3-methyl-2,5-dioxo-imidazolidin-1-yl)-phenyl]-1H-indole-3-carboxamide] | < 0.5 | 207 to 208 | – | –
22 | CCn1c(N2CCN(C(=O)OC(C)(C)C)CC2)c(C#N)c2ccc(C(F)(F)F)cc21 [Compound 785, 4-(3-cyano-1-ethyl-6-trifluoromethyl-1H-indol-2-yl)-piperazine-1-carboxylic acid tert-butyl ester] | 0.5 to 2 | 151 to 153 | – | –
23 | CCCn1c(-c2ccc(N3CCCS3(=O)=O)cc2)c(-c2cnco2)c2ccc(OC)cc21 [Compound 805] | > 2 | 217 to 222 | – | –
24 | CCn1c(-c2ccc(N(CCOC(C)=O)S(C)(=O)=O)cc2)c(C#N)c2ccc(OC)cc21 [Compound 815, N-(2-acetoxyethyl)-N-[4-(3-cyano-1-ethyl-6-methoxy-1H-indol-2-yl)-phenyl]methanesulfonamide] | > 2 | 153 to 154 | – | –
25 | CCn1c(-c2ccc(N(CCO)S(C)(=O)=O)cc2)c(C#N)c2ccc(OC)cc21 [Compound 828, N-[4-(3-cyano-1-ethyl-6-methoxy-1H-indol-2-yl)-phenyl]-N-(2-hydroxyethyl)-methanesulfonamide] | 0.5 to 2 | 198 to 200 | – | –
26 | CCOc1ccc(-c2c(C#N)c3ccc(Br)cc3n2CC)cc1 [Compound 831, 6-Bromo-2-(4-ethoxyphenyl)-1-ethyl-1H-indole-3-carbonitrile] | > 2 | 140 to 141 | – | –
27 | CCOc1ccc(-c2c(C#N)c3ccc(NC(=O)OC(C)(C)C)cc3n2CC)cc1 [Compound 832, [3-cyano-2-(4-ethoxy-phenyl)-1-ethyl-1H-indol-6-yl]-carbamic acid tert-butyl ester] | 0.5 to 2 | 206 to 207 | – | –
28 | CCOc1ccc(-c2c(C#N)c3ccc(N)cc3n2CC)cc1 [Compound 833, 6-amino-2-(4-ethoxyphenyl)-1-ethyl-1H-indole-3-carbonitrile] | 0.5 to 2 | 183 to 185 | – | –
29 | CCOc1ccc(-c2c(C#N)c3ccc(NS(=O)(=O)CC)cc3n2CC)cc1 [Compound 835, Ethanesulfonic acid [3-cyano-2-(4-ethoxyphenyl)-1-ethyl-1H-indol-6-yl]-amide] | 0.5 to 2 | 178 to 179 | – | –
30 | CCOC(=O)Nc1ccc2c(C#N)c(-c3ccc(OCC)cc3)n(CC)c2c1 [Compound 838, [3-cyano-2-(4-ethoxyphenyl)-1-ethyl-1H-indol-6-yl]-carbamic acid ethyl ester] | 0.5 to 2 | 193 to 194 | – | –
31 | CCNC(=O)Nc1ccc2c(C#N)c(-c3ccc(OCC)cc3)n(CC)c2c1 [Compound 839, 1-[3-cyano-2-(4-ethoxyphenyl)-1-ethyl-1H-indol-6-yl]-3-ethyl-urea] | > 2 | 249 to 250 | – | –
32 | CCn1c(N2CCN(S(=O)(=O)C3CC3)CC2)c(C#N)c2ccc(C(F)(F)F)cc21 [Compound 842, 2-[4-(cyclopropylsulfonyl)piperazin-1-yl]-1-ethyl-6-(trifluoromethyl)-1H-indole-3-carbonitrile] | > 2 | 170 to 171 | – | –
33 | COc1ccc(C[C@H](N)C(=O)N[C@H]2[C@@H](O)[C@H](n3cnc4c(N(C)C)ncnc43)O[C@@H]2CO)cc1 [puromycin] | – | – | – | inhibited
